Molecules are shown by their SMILES. Values after ≈ are worked out from the molar mass of the structure shown. Where two headings read alike, the source gives them in different places.

Series [1] concerns Gross leukemia. The experiment in a line: Gross leukemia, treatment i.v. on days 1 to 3. The format is in vivo, mouse. An excerpt:
On Gross leukemia (which is a systemic tumor transplanted i.v.), the increase in the life span of mice treated with the two compounds at equitoxic doses was similar.
Activity of 4-demethoxy-4'-epi-adriamycin
on Gross leukemia. Treatment i.v. on days
Average data of 2 experiments^a.
^a See legends to Table 7.

The test system of series [2] is L 1210 leukemia. The series is described as follows: Ascitic leukemia L 1210, treatment i.p. on day 1. In kind it is in vivo, mouse. An excerpt: (§1) Activity of 4-demethoxy-4'-epi-adriamycin on
(§2) ascitic leukemias. Treatment i.p. on day 1.
(§3) ^a Median survival time, % over untreated controls
(§4) ^b Long term survivors at 60 days

Series [3] in a line: Proliferation of uninfected mouse embryo fibroblast (MEF) cultures (cytotoxic action). The format is cell-based. Conditions: mouse, mouse embryo fibroblasts. As for the experimental part: (§5) The test compound was evaluated on mouse embryo fibroblast (MEF) cultures infected with MSV and on similar uninfected cultures. After a treatment of three days the inhibiting doses (ID50) were evaluated on cell proliferation in uninfected cultures (cytotoxic action) and on MSV foci formation in infected cultures (antiviral action).
^c inhibition of mouse embryo fibroblasts proliferation

The subject of series [4] is solid sarcoma 180. The series is described as follows: Solid sarcoma 180, treatment i.v. on days 1 to 5. The format is in vivo, mouse.
From the text: as §1
solid sarcoma 180. Treatment i.v. on days 1 to 5.
Average data of 2 experiments.
^a Tumor weight on day 11, % over untreated controls.

Series [5] deals with P 388 leukemia. The series is described as follows: Ascitic leukemia P 388, treatment i.p. on day 1. The format is in vivo, mouse.
From the text: as §1, §2, §3, §4

In series [6] the test system is Moloney Sarcoma Virus (MSV). The experiment in a line: Formation of foci by Moloney Sarcoma Virus (MSV) in vitro (antiviral action). The format is cell-based. Conditions: Fibroblast, 72 h. The procedure: as §5
^b inhibition of MSV foci formation

The test system of series [7] is Hela cells. The series is described as follows: Cloning efficiency of Hela cells in vitro (colony inhibition). In kind it is cell-based. Conditions: Homo sapiens. The procedure:
After treatment for 2, 8 and 24 hours, Hela cells were seeded (200 cells per plate) and the number of colonies determined 8 days later. The inhibiting dose (ID50) represents the does which produces a 50% inhibition of colonies.
^a cloning efficiency of Hela cells

Series [8] relates to Ascites Sarcoma 180. The series is described as follows: Ascites Sarcoma 180 in Swiss CD1 mice, i.p. The format is in vivo, mouse (Swiss CD1). Conditions: i.p. one day after inoculation. The procedure: In Table 5 the activity of 3'-4'-epi-6'-hydroxyadriamycin on Ascites Sarcoma 180 in mice is reported. The test was carried out on groups of 10 mice (Swiss CD1). The compound under examination was administered intraperitoneally in varying doses to the test animals one day after intraperitoneal inoculation with 1×10^6 tumor cells/mouse.
The average survival time is given as percentage of the survival time of untreated animals, which is arbitrarily designated as 100%. The number of long term survivors (LTS) is also reported.

In series [9] the test system is experimental mouse tumors. The series is described as follows: Experimental mouse tumors (overall). The format is in vivo. Conditions: mouse, in vivo. As for the experimental part:
The test was carried out on groups of 10 mice (Swiss CD1). The compound under examination was administered intraperitoneally in varying doses to the test animals one day after intraperitoneal inoculation with 1×10^6 tumor cells/mouse.
The above compound was tested in comparison with adriamycin in several in vitro systems and experimental mouse tumors.

The subject of series [10] is L 1210 leukemia. The experiment in a line: L 1210 leukemia bearing BDF mice, single i.p. treatment on first day. The format is in vivo, mouse (BDF). Conditions: for T/C %: single i.p. day 1. An excerpt: Inbread BDF mice were intraperitoneally inoculated with 1×10^5 leukemia cells/mouse and then treated with 3'-4'-epi-6'-hydroxydaunomycin:Single treatment i.p. on the first day.

For `COc1cccc2c1C(=O)c1c(O)c3c(c(O)c1C2=O)C[C@@](O)(C(=O)CO)C[C@@H]3O[C@H]1C[C@H](N)[C@H](O)[C@H](C)O1` [Adriamycin, adriamycin], the “LTS (long term survivors)” value in series [1] (3.5 mg/Kg i.v. days 1 to 3) was 0/20; in series [1] (4.5 mg/Kg i.v. days 1 to 3) it was 0/20; in series [1] (5.5 mg/Kg i.v. days 1 to 3) it was 1/10; in series [1] (6 mg/Kg i.v. days 1 to 3), 0/10; in series [8] (4.5 ng/Kg (so in the source)) it was 1/10. In addition, the “T/C % (median survival time, % over untreated controls)” value in series [1] (3.5 mg/Kg i.v. days 1 to 3) was 164%; in series [1] (4.5 mg/Kg i.v. days 1 to 3), 182%; in series [1] (5.5 mg/Kg i.v. days 1 to 3), 200%; in series [1] (6 mg/Kg i.v. days 1 to 3) it was 214%; in [2] (2.5 mg/Kg i.p. day 1), 155%; in series [2] (5 mg/Kg i.p. day 1), 166%. The “T/C % (median survival time, % over untreated controls)” value is on record as 155% in [2] (10 mg/Kg i.p. day 1), 150% in [5] (2.5 mg/Kg i.p. day 1), 162% in series [5] (5 mg/Kg i.p. day 1) and 200% in series [5] (10 mg/Kg i.p. day 1). Also, the Toxic deaths in [1] (3.5 mg/Kg i.v. days 1 to 3) is 0/20; in series [1] (4.5 mg/Kg i.v. days 1 to 3) it was 0/20; in series [1] (5.5 mg/Kg i.v. days 1 to 3), 1/10; in series [1] (6 mg/Kg i.v. days 1 to 3), 3/10; in series [2] (2.5 mg/Kg i.p. day 1) it was 0/11; in series [2] (5 mg/Kg i.p. day 1), 1/11. Besides, the Toxic deaths in [2] (10 mg/Kg i.p. day 1) is 7/11; in [4] (2 mg/Kg i.v. days 1 to 5) it was 3/19; in series [4] (2.5 mg/Kg i.v. days 1 to 5), 11/18; in series [5] (2.5 mg/Kg i.p. day 1) it was 0/10; in [5] (5 mg/Kg i.p. day 1), 0/10; in series [5] (10 mg/Kg i.p. day 1), 0/10. The “LTS (long term survivors at 60 days)” value in series [2] (2.5 mg/Kg i.p. day 1) is given as 4/11; in series [2] (5 mg/Kg i.p. day 1), 1/11; in series [2] (10 mg/Kg i.p. day 1) it was 3/11; in [5] (2.5 mg/Kg i.p. day 1), 0/10; in series [5] (5 mg/Kg i.p. day 1), 0/10; in [5] (10 mg/Kg i.p. day 1), 1/10. Besides, the CC50 at 72 h in series [3] (72 (hours) treatment, Table 6, read-out: ID50, inhibition of mouse embryo fibroblasts proliferation) turned out to be 0.026 ng/mL (≈ 0.0478 nM). The results for the “T/C % (tumor weight on day 11, % over untreated controls)” value in series [4] (2 mg/Kg i.v. days 1 to 5) and in [4] (2.5 mg/Kg i.v. days 1 to 5) were 22.2% and 13.5%, respectively. Moreover, the IC50 in series [6] (read-out: ID50, inhibition of MSV foci formation) came to 0.01 ng/mL (≈ 0.0184 nM); in series [7] (read-out: ID50, cloning efficiency of Hela cells, 8 (hours) treatment, Table 6), 28 ng/mL (≈ 51.5 nM); in [7] (read-out: ID50, cloning efficiency of Hela cells, 24 (hours) treatment, Table 6), 12.5 ng/mL (≈ 23 nM). The “T/C % (average survival time, % of untreated)” value in series [8] (4.5 ng/Kg (so in the source)) worked out at 250%.
Turning to `COc1cccc2c1C(=O)c1c(O)c3c(c(O)c1C2=O)C[C@@](O)(C(=O)CO)C[C@@H]3O[C@H]1C[C@@H](N)[C@@H](O)[C@H](CO)O1` [3'-4'-epi-6'-hydroxyadriamycin, 3',4'-epi-6'-hydroxy-adriamycin], the “activity in experimental tumors” value in series [9] is given as “active in experimental tumors”. For the same compound, the “LTS (long term survivors)” value was 1/10 in [8] (3 ng/Kg (so in the source)) and 2/10 in series [8] (4.5 ng/Kg (so in the source)). The “T/C % (average survival time, % of untreated)” value in series [8] (3 ng/Kg (so in the source)) stood at 123%; in series [8] (4.5 ng/Kg (so in the source)), 226%; in [8] (6.7 ng/Kg (so in the source)), 138%; in [8] (10.5 ng/Kg (so in the source)), 138%.
Consider `COc1cccc2c1C(=O)c1c(O)c3c(c(O)c1C2=O)C[C@@](O)(C(C)=O)C[C@@H]3O[C@H]1C[C@@H](N)[C@@H](O)[C@H](CO)O1` [3'-4'-epi-6'-hydroxydaunomycin, 3',4'-epi-6'-hydroxy-daunomycin], for which the T/C % in [10] (7.5 ng/Kg (so in the source)), in [10] (11.5 ng/Kg (so in the source)) and in series [10] (17.25 ng/Kg (so in the source)) was 150% in each case. Further, in series [10] (Table 4), the in vivo activity entry is listed as “significant in vivo activity”.
As for `COc1cccc2c1C(=O)c1c(O)c3c(c(O)c1C2=O)C[C@@](O)(C(C)=O)C[C@@H]3O[C@H]1C[C@H](N)[C@H](O)[C@H](C)O1` [Daunomycin], the CC50 at 72 h in series [3] (uninfected MEF, three days treatment, Table 2, read-out: Cytotoxic action ID50) came out at 16 ng/mL (≈ 30.3 nM). Further, the IC50 stood at 3 ng/mL (≈ 5.69 nM) in [6] (read-out: Antiviral action ID50); 17000 ng/mL (≈ 32200 nM) in series [7] (2 h, read-out: ID50 (action on Hela cells), 2 hours treatment, Table 1); 8500 ng/mL (≈ 16100 nM) in [7] (8 h, read-out: ID50 (action on Hela cells), 8 hours treatment, Table 1); 6800 ng/mL (≈ 12900 nM) in series [7] (24 h, read-out: ID50 (action on Hela cells), 24 hours treatment, Table 1).

(Values after patent publication US4112076A, “Epi-daunomycin and epi-adriamycin compounds and method of use” (priority 1975, dated 1978).)
